The values below come from ChEMBL document CHEMBL5705903, “A DNA Hypomethylation Signature Predicts Antitumor Activity of LSD1 Inhibitors in SCLC” (Cancer Cell, 2015).

Series [1] addresses 3',5'-cyclic-AMP phosphodiesterase 4B (Homo sapiens, UniProt Q07343). Briefly: Inhibition of PDE4B (unknown origin).
Series [2] is described as follows: Inhibition of GABA-A receptor (unknown origin). Set-up: species or system Homo sapiens.
A short description of series [3]: Inhibition of Cav1.2 (unknown origin). Further details: species or system Homo sapiens.
Series [4] is described as follows: Effect on cleaved PARP level in human NCI-H146 cells assessed as fold change at 100 nM measured after 7 days by Western blot analysis (reference value: 1.00). It is filed as functional. As to conditions: time 7 day. For orientation: A western blot detects proteins with antibodies after separation by electrophoresis.
Series [5] in a line: Effect on cleaved PARP level in human NCI-H889 cells assessed as relative expression at 1000 nM measured after 7 days by Western blot analysis (reference value: 0.34). Conditions: time 7 day. It is filed as functional.
For series [6], the system named is NCI-H526. Briefly: Antitumor activity against human NCI-H526 cells xenografted in nude mouse assessed as tumor growth inhibition at 1.5 mg/kg, po administered daily measured twice weekly relative to control. It is filed as functional. Conditions: read-out: TGI. (In xenograft studies the graft and the host belong to different species.)
The nature of series [7]: Effect on cleaved PARP level in human COLO-668 cells assessed as relative expression at 1000 nM measured after 10 days by Western blot analysis (reference value: 1.07). The series is classed as functional. As to conditions: time 10 day.
Series [8] can be described thus: Effect on cleaved PARP level in human NCI-H510 cells assessed as relative expression at 10 nM measured after 14 days by Western blot analysis (reference value: 0.01). The series is classed as functional, NCI-H510A. As to conditions: time 14 day.
The subject of the next series is NCI-H510A. Briefly: Antitumor activity against human NCI-H510A cells xenografted in nude mouse assessed as tumor growth inhibition at 1.5 mg/kg, po administered daily measured twice weekly relative to control. The series is classed as functional. Conditions: read-out: TGI.
A short description of series [9]: Toxicity in dog assessed as multifocal hemorrhage in organs measured for 28 days. Further details: species or system Canis lupus familiaris. As to conditions: in vivo, 672 h, time 28 day.
A short description of series [10]: Effect on cleaved PARP level in human NCI-H1694 cells assessed as fold change at 1000 nM measured after 7 days by Western blot analysis (reference value: 1.00). As to conditions: time 7 day. The series is classed as functional.
The nature of series [11]: Toxicity in dog assessed as suppression of erythroid maturation in bone marrow measured for 28 days. As to conditions: in vivo, 672 h, time 28 day. Further details: species or system Canis lupus familiaris.
Series [12] is described as follows: Toxicity in dog assessed as suppression of neutrophil in bone marrow measured for 28 days. It is filed as cell-based, Canis lupus familiaris. Conditions: 672 h, time 28 day.
Series [13] in a line: Toxicity in rat assessed as suppression of neutrophil in bone marrow measured for 28 days. The series is classed as cell-based. As to conditions: 672 h, time 28 day.
The nature of series [14]: Effect on cleaved PARP level in human NCI-H1417 cells assessed as relative expression at 100 nM measured after 7 days by Western blot analysis (reference value: 0.10). As to conditions: time 7 day. It is filed as functional.
A short description of series [15]: Effect on cleaved PARP level in human NCI-H2171 cells assessed as fold change at 100 nM measured after 14 days by Western blot analysis (reference value: 1.00). It is filed as functional. Conditions: time 14 day.
Series [16] is described as follows: Effect on cleaved PARP level in human NCI-H526 cells assessed as fold change at 100 nM measured after 7 days by Western blot analysis (reference value: 1.00). It is filed as functional. As to conditions: time 7 day.
Series [17] in a line: Effect on cleaved PARP level in human COLO-668 cells assessed as fold change at 10 nM measured after 7 days by Western blot analysis (reference value: 1.00). Conditions: time 7 day. The series is classed as functional.
Series [18] is described as follows: Effect on cleaved PARP level in human NCI-H2171 cells assessed as relative expression at 100 nM measured after 14 days by Western blot analysis (reference value: 0.01). The series is classed as functional. As to conditions: time 14 day.
Series [19] can be described thus: Toxicity in dog assessed as effect on ECG measured for 28 days. Further details: species or system Canis lupus familiaris. As to conditions: in vivo, 672 h, time 28 day.
Series [20] deals with NCI-H526. Description: Antitumor activity against human NCI-H526 cells xenografted in nude mouse assessed as mean tumor volume at 0.5 mg/kg, po administered daily measured twice weekly (reference value: 2359 +/- 247 mm3). It is filed as functional.
Series [21] can be described thus: Effect on cleaved PARP level in human NCI-H2171 cells assessed as fold change at 1000 nM measured after 10 days by Western blot analysis (reference value: 1.00). The series is classed as functional. As to conditions: time 10 day.
Series [22] in a line: Effect on cleaved PARP level in human NCI-H524 cells assessed as relative expression at 100 nM measured after 7 days by Western blot analysis (reference value: 0.63). Conditions: time 7 day. The series is classed as functional.
A further series relates to NCI-H1417. Description: In vivo inhibition of LSD1 in human NCI-H1417 cells xenografted in nude mouse assessed as change in SAMD5 gene expression measured after 24 hrs post single administration by qRT-PCR analysis. It is filed as functional, organism-based. Conditions: dose 0.02-135 mg/kg.
The nature of series [23]: Effect on cleaved PARP level in human NCI-H69 cells assessed as fold change at 10 nM measured after 7 days by Western blot analysis (reference value: 1.00). The series is classed as functional. As to conditions: time 7 day.
Series [24] in a line: Effect on cleaved PARP level in human NCI-H1417 cells assessed as fold change at 100 nM measured after 14 days by Western blot analysis (reference value: 1.00). Conditions: time 14 day. The series is classed as functional.
The nature of series [25]: Tmax in mouse tumor at 5 mg/kg, po by HPLC/MS/MS analysis. It is filed as ADME, organism-based, Neoplasm.
The nature of series [26]: Effect on cleaved PARP level in human NCI-H526 cells assessed as fold change at 10 nM measured after 7 days by Western blot analysis (reference value: 1.00). The series is classed as functional. As to conditions: time 7 day.
A short description of series [27]: Toxicity in rat assessed as myelofibrosis measured for 28 days. Conditions: in vivo, 672 h, time 28 day.
Series [28] in a line: Toxicity in mouse xenografted with human NCI-H526 cells assessed as body weight loss at 1.5 mg/kg, po administered daily measured for 30 days. The series is classed as organism-based. As to conditions: in vivo, 720 h, time 30 day.
A short description of series [29]: Effect on cleaved PARP level in human NCI-H526 cells assessed as fold change at 100 nM measured after 14 days by Western blot analysis (reference value: 1.00). The series is classed as functional. As to conditions: time 14 day.
Series [30] is described as follows: Effect on cleaved PARP level in human NCI-H2171 cells assessed as fold change at 10 nM measured after 10 days by Western blot analysis (reference value: 1.00). Conditions: time 10 day. It is filed as functional.
Series [31] can be described thus: Effect on cleaved PARP level in human COLO-668 cells assessed as relative expression at 100 nM measured after 10 days by Western blot analysis (reference value: 1.07). It is filed as functional. As to conditions: time 10 day.
The nature of series [32]: Effect on cleaved PARP level in human NCI-H146 cells assessed as fold change at 10 nM measured after 7 days by Western blot analysis (reference value: 1.00). It is filed as functional. As to conditions: time 7 day.
Series [33] is described as follows: Effect on cleaved PARP level in human NCI-H524 cells assessed as fold change at 10 nM measured after 14 days by Western blot analysis (reference value: 1.00). It is filed as functional. As to conditions: time 14 day.
A short description of series [34]: Effect on cleaved PARP level in human NCI-H510 cells assessed as relative expression at 100 nM measured after 10 days by Western blot analysis (reference value: 0.02). It is filed as functional, NCI-H510A. As to conditions: time 10 day.
Series [35] in a line: Effect on cleaved PARP level in human NCI-H2171 cells assessed as relative expression at 10 nM measured after 14 days by Western blot analysis (reference value: 0.01). As to conditions: time 14 day. It is filed as functional.
Series [36] in a line: Oral bioavailability in mouse at 5 mg/kg by HPLC/MS/MS analysis. It is filed as ADME, organism-based. Conditions: in vivo.
The nature of series [37]: Effect on cleaved PARP level in human NCI-H2171 cells assessed as relative expression at 100 nM measured after 7 days by Western blot analysis (reference value: 0.02). It is filed as functional. Conditions: time 7 day.
Series [38] can be described thus: Effect on cleaved PARP level in human NCI-H524 cells assessed as relative expression at 10 nM measured after 14 days by Western blot analysis (reference value: […]). It is filed as functional. Conditions: time 14 day.

SMILES strings stand for the structures. A value given as a limit tells only on which side of the number the result lay.

3',5'-cyclic-AMP phosphodiesterase 4B, sequence (Q07343 whole entry): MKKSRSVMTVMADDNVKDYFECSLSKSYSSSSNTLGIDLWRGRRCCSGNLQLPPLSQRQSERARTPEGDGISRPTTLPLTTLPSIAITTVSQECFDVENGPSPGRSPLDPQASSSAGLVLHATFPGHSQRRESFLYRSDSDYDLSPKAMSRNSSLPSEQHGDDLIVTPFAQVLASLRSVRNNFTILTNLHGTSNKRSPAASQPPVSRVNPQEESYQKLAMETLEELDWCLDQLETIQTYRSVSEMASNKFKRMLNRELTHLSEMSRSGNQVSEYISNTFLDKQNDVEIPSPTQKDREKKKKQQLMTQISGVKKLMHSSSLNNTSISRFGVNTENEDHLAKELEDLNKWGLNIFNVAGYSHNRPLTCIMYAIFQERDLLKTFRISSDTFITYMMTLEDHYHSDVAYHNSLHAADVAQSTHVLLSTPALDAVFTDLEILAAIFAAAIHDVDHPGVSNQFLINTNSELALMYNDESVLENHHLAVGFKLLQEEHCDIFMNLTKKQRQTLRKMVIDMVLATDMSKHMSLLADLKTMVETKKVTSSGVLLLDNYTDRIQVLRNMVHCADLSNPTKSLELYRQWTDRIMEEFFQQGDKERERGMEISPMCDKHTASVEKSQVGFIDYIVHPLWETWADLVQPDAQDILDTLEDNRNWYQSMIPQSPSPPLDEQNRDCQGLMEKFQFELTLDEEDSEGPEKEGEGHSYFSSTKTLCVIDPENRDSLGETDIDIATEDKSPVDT

As to `c1ccc([C@@H]2C[C@H]2NC2CCNCC2)cc1`, the IC50 in series [1], in [2] and in series [3] was > 100 µM in each case.

As for `O=C(O)c1ccc(CN2CCC(CN[C@@H]3C[C@H]3c3ccccc3)CC2)cc1` [GSK2879552], the “fold change (FC)” value is on record as 1.02 in series [4]; 1.44 in [10]; 1.8 in series [15]; 1.2 in [16]; 0.74 in [17]; 1.33 in series [21]. The “fold change (FC)” value in series [23] worked out at 1.26; in series [24], 0.83; in series [26] it was 0.85; in [29], 1.41; in series [30], 1.33; in series [32], 1.09. Further, in series [33], the “fold change (FC)” value amounted to 0.79. Further, the Activity in series [5] is 0.66; in [7], 0.63; in [8], 0.32; in series [9] it was “Toxic”; in series [11], “Toxic”; in series [12] it was “Toxic”. Besides, the Activity result in [13] is reported as “Toxic”; in series [14], 0.29; in series [18], 0.02; in series [19], “Toxic”; in the series on NCI-H526 [20], 1319 mm3; in series [22], 0.6. The Activity entry in [27] is on record as “Toxic”; in series [28], “Non-Toxic”; in [31] it was 0.74; in series [34] it was 0.18; in series [35] it was 0.01; in series [37], 0.03. Also, the Activity in [38] turned out to be 1.2. Besides, the inhibition in vivo at 1.5 mg/kg is 57% in the series with NCI-H526 [6] and 38% with NCI-H510A. Moreover, in the series on NCI-H1417, the inhibition entry is “Dose-Dependent Effect”. Further, the Tmax (in general, the time at which the peak concentration occurs) in series [25] worked out at 30 min. The bioavailability (in general, dose-corrected exposure relative to a reference, in per cent) in [36] came out at 59.2%.
